# “Also recorded” adds a separate entry of the source. Positions of bridges follow the written chain, without caps; N, C: chain ends. No end group written: not given here.
# How the values were obtained:
# [1] = system: mouse bone marrow cells (CFU-E); assay: in vitro mouse CFU-E colony assay (methyl cellulose semi-solid medium, with rHuEPO); format: cell-based
# Experimental: In the case of oral administration to rats, the blood arginine concentration reaches about 600 μM by a single-dose administration of arginine at 1.2 g/kg. Therefore, it is expected that the number of CFU-E increases in a dose-dependent manner by such an oral administration. Also in humans, it is expected that the number of CFU-E increases as the concentration of arginine in the blood increases by the oral administration.
# An in vitro mouse CFU-E colony assay was carried out in accordance with the following method. After a female BDF-1 mouse at 10 weeks of age (Charles River Japan, Inc.) was killed by the cervical dislocation method, bone marrow cells were isolated from the femur and suspended in an IMDM medium (Invitrogen) containing 10% FCS (JRH Bioscience Inc). The bone marrow cells were centrifuged at 1500 rpm for 10 minutes at 4° C. and the precipitated bone marrow cells were resuspended in an amino acid-free IMDM medium and the number of cells was measured. […] Then, the number of CFU-E colonies was measured using an inverted microscope. […]
# In the graph, * indicates P<0.05. The data is expressed as a mean value±SEM. […]
# [2] = system: mouse bone marrow cells (CFU-E); assay: CFU-E colony assay with EPO mimetic peptide EMP1; format: cell-based
# Experimental: After a female BDF-1 mouse at 10 weeks of age (Charles River Japan, Inc.) was killed by the cervical dislocation method, bone marrow cells were isolated from the femur and suspended in an IMDM medium (Invitrogen) containing 10% FCS (JRH Bioscience Inc). The bone marrow cells were centrifuged at 1500 rpm for 10 minutes at 4° C. and the precipitated bone marrow cells were resuspended in an amino acid-free IMDM medium and the number of cells was measured. To a dish with a diameter of 3.5 cm (Nalgen Nunc, Inc. International), 1 ml of a methyl cellulose semi-solid medium in which the bone marrow cells were suspended {30 μM EMP1, 100 μM 2-mercaptoethanol (Wako Pure Chemical Industries, Ltd.), 24% FCS (JRH Bioscience Inc.), 0.8% methyl cellulose (methyl cellulose containing IMDM solution […], Stem Cell Technologies, Inc.), 2% BSA (SIGMA-ALDRICH Japan K.K.), 1×10^5 cells/ml of bone marrow cells} containing arginine at a concentration of 170 μM was added (which is equal to an IMDM medium whose concentration of the amino acid composition is one-third and which includes FCS at 24%). […] Then, the number of CFU-E colonies was measured using an inverted microscope. […] The data is expressed as a mean value ±SEM. […]
# [3] = system: normal rats; details: repeated administration; cited from earlier work
compound,measurement,setting,value
N=C(N)NCCC[C@H](N)C(=O)O [arginine],number of CFU-E colonies,"[1]; arginine 600 μM vs 170 μM, 1 IU/ml rHuEPO, 48 hours, per 2.2×10^5 bone marrow cells, P<0.05",increased the number of CFU-E; also recorded: further increases CFU-E; also recorded: significantly increases
same,combined effect of arginine with EPO on CFU-E,[1]; arginine concomitantly with a sufficient amount of EPO,synergistic effect
same,number of CFU-E colonies,"[2]; arginine 770 μM vs 170 μM, 30 μM EMP1, 48 hours, P<0.05",increased the number of CFU-E
same,amount of hemoglobin,[3],increased
same,amount of red blood cells,[3],increased
"GGTYSCHFGPLTWVCKPQGG-NH2 (disulfide 6-15; N-terminus assumed; SMILES CC(C)C[C@@H]1NC(=O)[C@@H]2CCCN2C(=O)CNC(=O)[C@H](Cc2ccccc2)NC(=O)[C@H](Cc2c[nH]cn2)NC(=O)[C@@H](NC(=O)[C@H](CO)NC(=O)[C@H](Cc2ccc(O)cc2)NC(=O)[C@@H](NC(=O)CNC(=O)CN)[C@@H](C)O)CSSC[C@@H](C(=O)N[C@@H](CCCCN)C(=O)N2CCC[C@H]2C(=O)N[C@@H](CCC(N)=O)C(=O)NCC(=O)NCC(N)=O)NC(=O)[C@H](C(C)C)NC(=O)[C@H](Cc2c[nH]c3ccccc23)NC(=O)[C@H]([C@@H](C)O)NC1=O) [EMP1, EPO mimetic peptide described in Science, vol; 273, pp. 458-463 (1996), reference compound]",amount of EMP1 for the highest action (CFU-E colonies),"[2]; same condition as FIG. 2A, FIG. 2B",≥ 10 µM

# From patent US20070037886A1, “Bone marrow erythroid progenitor cell(s) differentiation inducer” (priority 2005, published 2007)
